Values of other authors in US20070298107A1, “Pharmaceutical Compositions of Mirtazapine” (AUROBINDO PHARMA LTD., priority 2003, published 2007).

Conditions: background statement

CN1CCN2c3ncccc3Cc3ccccc3C2C1 (stereo not shown) [Mirtazapine]
solubility in water: essentially insoluble
